Test results from patent US11952364B2, “TRK inhibitors useful as anticancer drugs” (TYLIGAND BIOSCIENCE (SHANGHAI) LIMITED, priority 2018, dated 2024).
Like-named read-outs stand apart in the source and are kept apart here.

System: KM12 cells
Assay: Proliferation of KM12 cells (CellTiter-Glo)
Type: cell-based, human
From the text: KM12 is a human colon cancer cell line in which NTRK1 is highly expressed, and gene fusion occurs with TPM3 to form TPM3-NTRK1. • [Test method]: Promega's CellTiter-Glo® Luminescent Cell Viability Assay kit was used to evaluate the inhibitory activity of the compounds on the proliferation of KM12 cells. • [Instrument]: Spectramax M3 multifunctional microplate reader from Molecular Devices. • [Test materials]: KM12 cell line (ATCC, item number CRL-12496), 96-well transparent flat-bottomed black-walled cell culture plate (Corning, item number #3603), RPMI-1640 media (GE, cat #SH30027.01), Fetal Bovine Serum FBS (Thermo Fisher, cat #10099-141), CellTiter-Glo® Luminescent Cell Viability Assay Kit (Promega, cat #G7572), PBS (Solarbio, cat #P1020), Trypsin (Thermo Fisher, cat #25200072), DMSO (Sigma, cat #D2650). • [Experimental procedure]: When resuscitating KM12 cells, the freezing tube was quickly shaken in a 37° C. water bath to melt within 1 minute. The thawed cell suspension was mixed uniformly with RPMI1640 medium containing 10% FBS, centrifuged at 1000 rpm for 5 minutes, and the supernatant discarded. 5 mL of complete medium (RPMI1640 medium with 10% FBS) was taken to resuspend the cell pellets, charged into a cell culture flask with a bottom area of 25 cm^2, and incubated in a cell incubator at 37° C., 95% humidity and 5% CO2. Cells were allowed to passage when the cell confluence rate reached about 80%. For cell passage, the old medium was discarded, and the cells were washed twice with PBS, and 0.5 mL trypsin was added to digest the cells. Upon dispersing into single cells and exfoliating from the bottom of the cell culture flask, 4.5 mL of new complete medium was added to terminate the digestion. After pipetting the cell suspension evenly, 1/5 of the cell suspension was kept and added with 4 mL of new complete medium, and after pipetting evenly, the cell flask was placed in the cell incubator for further culturing. Cell plating was performed when the cell confluence rate reached about 80% again. For cell plating, 1/5 of the cell suspension was kept for further culturing as in the cell passage method, and the remaining 4/5 of the cell suspension was placed in a 15 mL centrifuge tube, detected for cell viability by Trypan blue exclusion method to ensure that cell viability was above 90%. A cell suspension with a density of 3.33×10^4 viable cells/mL was prepared with complete medium, and 90 μL of such cell suspension was added to a 96-well cell culture plate to obtain a cell density of 3000 viable cells/mL in the cell culture plate. A control group containing no cells, no compound and only complete medium (i.e. culture medium control) and a control group containing no compound but containing cells (i.e. cell control) were set. The cell plate was placed in a cell incubator overnight.
The 10 mM compound stock solution in DMSO was first serially diluted with DMSO at a dilution factor of 3.16 times, to obtain 9 concentrations, and the 10th concentration was set as DMSO control without compound. Then, PBS was used to dilute the DMSO solutions of compounds of different concentrations, at a dilution factor of 100 times, so that the DMSO concentration in the compound solution of each concentration was 1%. Finally, 10 μL of each of the above solutions was added to the corresponding cell culture plate, so that the initial compound concentration was 10 μM, with the remaining concentrations being successively diluted at a dilution factor of 3.16 times, and the DMSO content in the cell culture plate was 0.1%.
The cell plate was placed in a cell incubator and cultured for 72 hours. For endpoint detection, the CellTiter-Glo reagent was melted, and the cell plate was moved to room temperature to equilibrate for 30 minutes, added with 100 μL of CellTiter-Glo for each well, and shaken on an orbital shaker for 5 minutes to fully lyse the cells. […]

[1] = Homo sapiens, KM12, Table 1-2, separate test, read-out: KM-12, IC50
[2] = Homo sapiens, KM12, 72 h, Table 1, 72 hours, read-out: KM-12, IC50
[3] = Homo sapiens, KM12, Table 1-1, separate test, read-out: KM-12, IC50

Compound | IC50 [2] [nM] | IC50 [3] [nM] | further results
COc1ccc(C(=O)Nc2ccc(Oc3cc4cnn5c4c(c3-c3cn[nH]c3)CC5)c(F)c2)c(=O)n1-c1ccc(F)cc1 [Example 28, N-(4-((5-(1H-pyrazol-4-yl)-6,7-dihydropyrrolo[3,2,1-hi]-indazol-4-yl)oxy)-3-fluorophenyl)-1-(4-fluorophenyl)-6-methoxy-2-oxo-1,2-dihydropyidine-3-carboxamide] | – | – | IC50 (Homo sapiens, KM12, Table 9, read-out: KM12 cell proliferation inhibitory activity (IC50)): 56 nM
CCOc1ccc(C(=O)Nc2ccc(Oc3cc4cnn(CC)c4cc3-c3cn[nH]c3)c(F)c2)c(=O)n1-c1ccc(F)cc1 [Example 24, N-(3-fluoro-4-(1-ethyl-6-(1H-pyrazol-4-yl)-1H-indazol-5-yloxy)phenyl)-1-(4-fluorophenyl)-6-ethoxy-2-oxo-12-dihydropyridine-3-carboxamide] | – | – | IC50 (Table 1-3, separate test, read-out: KM-12, IC50): 23 nM
CC(C)Oc1ccc(C(=O)Nc2ccc(Oc3cc4cnn(C)c4cc3-c3cn[nH]c3)c(F)c2)c(=O)n1-c1ccc(F)cc1 [Example 16, N-(3-fluoro-4-(1-methyl-6-(1H-pyrazol-4-yl)-1H-indazol-5-yloxy)phenyl)-1-(4-fluorophenyl)-6-isopropoxy-2-oxo-1,2-dihydropyridine-3-carboxamide] | – | – | IC50 [1]: 7 nM
Cc1ccc(C(=O)Nc2ccc(Oc3cc4cnn(C(C)C)c4cc3-c3cn[nH]c3)c(F)c2)c(=O)n1-c1ccc(F)cc1 [Example 4, N-(3-fluoro-4-(1-isopropyl-6-(1H-pyrazol-4-yl)-1H-indazol-5-yloxy)phenyl)-1-(4-fluorophenyl)-6-methyl-2-oxo-1,2-dihydmpyridine-3-carboxamide] | 31 | – | –
CCn1ncc2cc(Oc3ccc(NC(=O)c4ccc(C5CC5)n(-c5ccc(F)cc5)c4=O)cc3F)c(-c3cn[nH]c3)cc21 [Example 19, N-(3-fluoro-4-(1-ethyl-6-(1H-pyrazol-4-yl)-1H-indazol-5-yloxy)phenyl)-1-(4-fluorophenyl)-6-cyclopropyl-2-oxo-1,2-dihydropyridine-3-carboxamide] | – | 32 | –
Cn1ncc2cc(Oc3ccc(NC(=O)c4ccc(C5CC5)n(-c5ccc(F)cc5)c4=O)cc3F)c(-c3cn[nH]c3)cc21 [Example 2, N-(3-fluoro-4-(1-methyl-6-(1H-pyrazol-4-yl)-1H-indazol-5-yloxy)phenyl)-1-(4-fluorophenyl)-6-cyclopropyl-2-oxo-1,2-dihydmpyridine-3-carboxamide] | 9.1 | – | –
CCc1ccc(C(=O)Nc2ccc(Oc3cc4cnn(CC)c4cc3-c3cn[nH]c3)c(F)c2)c(=O)n1-c1ccc(F)cc1 [Example 18, N-(3-fluoro-4-(1-ethyl-6-(1H-pyrazol-4-yl)-1H-indazol-5-yloxy)phenyl)-1-(4-fluorophenyl)-6-ethyl-2-oxo-1,2-dihydropyridine-3-carboxamide] | – | 32 | –
Cc1ccc(C(=O)Nc2ccc(Oc3cc4cnn(C)c4cc3-c3cn[nH]c3)c(F)c2)c(=O)n1-c1ccc(F)cc1 [Merestinib, reference compound] | 8.7 | 33 | IC50 [1]: 59 nM; IC50 (Homo sapiens, KM12, Table 1-3, separate test, read-out: KM-12, IC50): 27 nM
COc1ccc(C(=O)Nc2ccc(Oc3cc4cnn(C)c4cc3-c3cn[nH]c3)c(F)c2)c(=O)n1-c1ccc(F)cc1 [Example 12, N-(3-fluoro-4-(1-methyl-6-(1H-pyrazol-4-yl)-1H-indazol-5-yloxy)phenyl)-1-(4-fluorophenyl)-6-methoxy-2-oxo-1,2-dihydropyridine-3-carboxamide] | – | 16 | –
CCn1ncc2cc(Oc3ccc(NC(=O)c4ccc(C)n(-c5ccc(F)cc5)c4=O)cc3F)c(-c3cn[nH]c3)cc21 [Example 3, N-(3-fluoro-4-(1-ethyl-6-(1H-pyrazol-4-yl)-1H-indazol-5-yloxy)phenyl)-1-(4-fluorophenyl)-6-methyl-2-oxo-1,2-dihydmpyridine-3-carboxamide] | 16.7 | – | –
Cn1ncc2cc(Oc3ccc(NC(=O)c4ccc(OC5CC5)n(-c5ccc(F)cc5)c4=O)cc3F)c(-c3cn[nH]c3)cc21 [Example 15, N-(3-fluoro-4-(1-methyl-6-(1H-pyrazol-4-yl)-1H-indazol-5-yloxy)phenyl)-1-(4-fluorophenyl)-6-cyclopropoxy-2-oxo-1,2-dihydropyridine-3-carboxamide] | – | – | IC50 [1]: 17 nM
